Test results as given in ChEMBL document CHEMBL1201862, “PubChem BioAssay data set” (2004).
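Cells were grown in 96-well plates and exposed to each compound for 48 hours at five concentrations; endpoints were interpolated linearly between bracketing concentrations, or set to the highest concentration if not reached. The concentration for 50% growth inhibition is given as GI50.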 The source made the active and inactive calls. Cut-off read from the data, not from the text of the source: active = GI50 up to about 1.1 µM and inactive = higher.

What was measured:
Test in all cases: NCI anticancer screen, dose series, 48 h
[1] = tested on: HCT-116
[2] = tested on: HOP-92
[3] = tested on: OVCAR-5
[4] = tested on: NCI-H23
[5] = tested on: ACHN
[6] = tested on: MDA-MB-435
[7] = tested on: DU-145
[8] = tested on: MDA-N
[9] = tested on: MDA-MB-231
[10] = tested on: HOP-62
[11] = tested on: HL-60
[12] = tested on: Hs-578T
[13] = tested on: NCI-H522
[14] = tested on: NCI-H226
[15] = tested on: A549
[16] = tested on: SK-OV-3
[17] = tested on: EKVX
[18] = tested on: IGROV-1
[19] = tested on: SK-MEL-28

Compound	GI50 [1]	GI50 [2]	GI50 [3]	GI50 [4]	GI50 [5]	GI50 [6]	GI50 [7]	GI50 [8]	GI50 [9]	GI50 [10]	GI50 [11]	GI50 [12]	GI50 [13]	GI50 [14]	GI50 [15]	GI50 [16]	GI50 [17]	GI50 [18]	GI50 [19]
Nc1nc(N)c2cc(Sc3ccc4ccccc4c3)ccc2n1	1.17 µM (inactive)	1.14 µM (inactive)	3.48 µM (inactive)	5.82 µM (inactive)	0.509 µM (active)	0.687 µM (active)	5.79 µM (inactive)	0.733 µM (active)	2.54 µM (inactive)	3.56 µM (inactive)	1.38 µM (inactive)	11.9 µM (inactive)	2.2 µM (inactive)	10.7 µM (inactive)	0.343 µM (active)	13.8 µM (inactive)	2.96 µM (inactive)	–	–
C[C@@]12C[C@@H](c3ccccc3O1)N1CCCSC1=N2	> 100 µM (inactive)	> 100 µM (inactive)	> 100 µM (inactive)	> 100 µM (inactive)	> 100 µM (inactive)	> 100 µM (inactive)	> 100 µM (inactive)	> 100 µM (inactive)	> 100 µM (inactive)	> 100 µM (inactive)	> 100 µM (inactive)	> 100 µM (inactive)	> 100 µM (inactive)	> 100 µM (inactive)	–	> 100 µM (inactive)	> 100 µM (inactive)	> 100 µM (inactive)	> 100 µM (inactive)
CCCC(=O)OCC1OC(n2cc(F)c(=O)[nH]c2=O)CC1OC(=O)CCC (stereo unspecified)	0.524 µM (active)	0.509 µM (active)	> 10 µM (inactive)	0.278 µM (active)	0.0441 µM (active)	3.95 µM (inactive)	0.156 µM (active)	1.25 µM (inactive)	> 10 µM (inactive)	0.0684 µM (active)	0.247 µM (active)	2.32 µM (inactive)	5.22 µM (inactive)	5.53 µM (inactive)	0.0578 µM (active)	> 2.93 µM (inactive)	> 10 µM (inactive)	> 10 µM (inactive)	> 6.68 µM (inactive)
Cc1nc(SCC(=O)Nc2ccccc2)c2sc(=S)n(-c3ccccc3)c2n1	> 10 µM (inactive)	> 10 µM (inactive)	> 10 µM (inactive)	> 10 µM (inactive)	> 10 µM (inactive)	> 10 µM (inactive)	> 10 µM (inactive)	> 10 µM (inactive)	6.18 µM (inactive)	8.71 µM (inactive)	> 10 µM (inactive)	4.25 µM (inactive)	> 10 µM (inactive)	2.9 µM (inactive)	> 10 µM (inactive)	> 10 µM (inactive)	> 10 µM (inactive)	> 10 µM (inactive)	> 10 µM (inactive)
COc1cc(/C=C2\CC3C4CC=C5C[C@@H](O)CC[C@]5(C)C4CC[C@]3(C)\C2=N\O)cc(OC)c1OC (stereo partly specified)	4.05 µM (inactive)	14.3 µM (inactive)	10.3 µM (inactive)	7.16 µM (inactive)	3.2 µM (inactive)	5.12 µM (inactive)	12.9 µM (inactive)	6.37 µM (inactive)	7.31 µM (inactive)	19.6 µM (inactive)	4.61 µM (inactive)	4.42 µM (inactive)	4.93 µM (inactive)	7.96 µM (inactive)	4.65 µM (inactive)	23.7 µM (inactive)	6.04 µM (inactive)	13 µM (inactive)	14.2 µM (inactive)
CC(OCc1ccccc1)C(NC(=O)C1CSSCC(NC(=O)C(Cc2ccccc2)NC(=O)OCc2ccccc2)C(=O)NC(Cc2ccccc2)C(=O)NC(Cc2cn(C=O)c3ccccc23)C(=O)NC(CCCCNC(=O)OCc2ccccc2)C(=O)NC(C(C)OCc2ccccc2)C(=O)N1)C(N)=O (stereo unspecified)	17.7 µM (inactive)	38.3 µM (inactive)	45 µM (inactive)	33.4 µM (inactive)	> 59.6 µM (inactive)	37.9 µM (inactive)	30.5 µM (inactive)	24.2 µM (inactive)	12.6 µM (inactive)	55.1 µM (inactive)	0.977 µM (active)	> 74.8 µM (inactive)	17.4 µM (inactive)	> 75 µM (inactive)	> 79.3 µM (inactive)	> 35.2 µM (inactive)	> 83.2 µM (inactive)	22.6 µM (inactive)	27.9 µM (inactive)
